Source: the supplement of paper PMC10307832

How the values were obtained:
Assay in all cases: relative viability (nuclei count vs DMSO), 5 days (fraction); higher = more cells survive
[1] = compound: CC1=C(C(=NN1)C)CC2=C(C3=C(S2)N(C(=O)N(C3=O)C)CC(C)C)C(=O)N4C[C@@H](CO4)O + C[C@@H](Oc1cc(-c2cnn(C3CCNCC3)c2)cnc1N)c1c(Cl)ccc(F)c1Cl [Crizotinib] (partner 1 µM)
Method in brief: (§1)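 After 5 days of treatment, lung cancer cells in 1536-well plates were fixed and stained in a single step (final 0.05% Triton X-100, 1% formaldehyde, 1 ug/ml Hoechst) and their nuclei counted on 4× images. Treatment had been applied by pin tool the day after seeding as one drug alone or as a fixed anchor-drug dose with five library-drug doses (not always all listed) in √10 steps. Relative viability is the nuclei count of treated wells divided by that of vehicle wells, and values are medians of duplicate plates.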

[2] = compound: CC1=C(C(=NN1)C)CC2=C(C3=C(S2)N(C(=O)N(C3=O)C)CC(C)C)C(=O)N4C[C@@H](CO4)O + CC(=O)c1c(C)c2cnc(Nc3ccc(N4CCNCC4)cn3)nc2n(C2CCCC2)c1=O [Palbociclib] (partner 0.5 µM)
Method in brief: as §1

IDH-C35 + Bortezomib = compound: Cc1ccccc1C(C(=O)NC1CCCCC1)N(C(=O)Cn1ccnc1C)c1cccc(F)c1 [IDH-C35] + CC(C)C[C@H](NC(=O)[C@H](Cc1ccccc1)NC(=O)c1cnccn1)B(O)O [Bortezomib] (partner 0.002 µM)
Method in brief: as §1

IDH-C35 + Vorinostat = compound: Cc1ccccc1C(C(=O)NC1CCCCC1)N(C(=O)Cn1ccnc1C)c1cccc(F)c1 [IDH-C35] + O=C(CCCCCCC(=O)Nc1ccccc1)NO [Vorinostat] (partner 1 µM)
Method in brief: as §1

Cell Line | relative viability ([1]; first compound 0.0025 µM) | relative viability ([1]; first compound 0.007906 µM) | relative viability ([1]; first compound 0.025 µM) | relative viability ([1]; first compound 0.07906 µM) | relative viability ([1]; first compound 0.25 µM) | relative viability ([2]; first compound 0.0025 µM) | relative viability ([2]; first compound 0.007906 µM) | relative viability ([2]; first compound 0.025 µM) | relative viability ([2]; first compound 0.07906 µM) | relative viability ([2]; first compound 0.25 µM) | relative viability (IDH-C35 + Bortezomib; first compound 0.08 µM) | relative viability (IDH-C35 + Bortezomib; first compound 0.253 µM) | relative viability (IDH-C35 + Bortezomib; first compound 0.8 µM) | relative viability (IDH-C35 + Bortezomib; first compound 2.53 µM) | relative viability (IDH-C35 + Bortezomib; first compound 8 µM) | relative viability (IDH-C35 + Vorinostat; first compound 0.08 µM) | relative viability (IDH-C35 + Vorinostat; first compound 0.253 µM) | relative viability (IDH-C35 + Vorinostat; first compound 0.8 µM) | relative viability (IDH-C35 + Vorinostat; first compound 2.53 µM) | relative viability (IDH-C35 + Vorinostat; first compound 8 µM)
HCC-78 | 0.444 | 0.316 | 0.342 | 0.371 | 0.322 | 0.534 | 0.546 | 0.464 | 0.469 | 0.44 | 0.581 | 0.521 | 0.587 | 0.563 | 0.446 | 0.447 | 0.484 | 0.457 | 0.381 | 0.531
HCC-366 | 0.661 | 1.13 | 0.622 | 0.641 | 0.825 | 0.377 | 0.406 | 0.387 | 0.372 | 0.523 | 1.07 | 1.01 | 1.06 | 0.987 | 0.979 | 0.49 | 0.351 | 0.321 | 0.371 | 0.404
HCC-827 | 0.96 | 0.965 | 0.924 | 0.929 | 1 | 0.403 | 0.414 | 0.339 | 0.541 | 0.466 | 1.07 | 1.02 | 1.07 | 1.08 | 1.01 | 0.731 | 0.85 | 0.811 | 0.789 | 0.868
HOP-62 | 0.807 | 1.11 | 1 | 0.819 | 1.12 | 0.409 | 0.418 | 0.461 | 0.404 | 0.574 | 0.725 | 0.77 | 0.73 | – | 0.798 | 0.532 | 0.708 | 0.669 | 0.434 | 0.628
IA-LM | 0.924 | 0.743 | 0.838 | 0.885 | 1.03 | – | – | – | – | – | 0.855 | 0.87 | 0.844 | 0.924 | 0.769 | 1 | 0.878 | 0.881 | – | 1.05
LC-2-ad | 0.486 | 0.451 | 0.411 | 0.454 | 0.638 | 0.46 | 0.518 | 0.456 | 0.467 | 0.55 | 1.01 | 1.03 | 1.01 | 1.04 | 0.935 | 0.694 | 0.701 | 0.67 | 0.632 | 0.677
LK-2 | 0.234 | 0.206 | 0.218 | 0.276 | 0.204 | 0.642 | 0.715 | 0.646 | 0.626 | 0.457 | – | – | – | – | – | 0.352 | 0.273 | 0.216 | 0.34 | 0.165
NCI-H358 | 0.639 | 0.543 | 0.566 | 0.66 | 0.7 | 0.144 | 0.132 | 0.12 | 0.121 | 0.14 | – | – | – | – | – | 0.709 | 0.659 | 0.686 | 0.614 | 0.611
NCI-H522 | – | – | – | – | – | 1.08 | 1.02 | 0.852 | 0.521 | 0.618 | – | – | – | – | – | 0.953 | 1.12 | 0.896 | 0.872 | 0.883
NCI-H596 | 1.02 | 1.06 | 0.954 | 1.04 | 1.16 | – | – | – | – | – | 1.02 | 0.998 | 1.2 | 1.2 | 0.999 | 0.733 | 0.584 | 0.721 | 0.725 | 0.604
NCI-H1299 | 0.961 | 0.993 | 0.923 | 0.941 | 0.948 | – | – | – | – | – | 1.02 | 1.01 | 1.03 | 0.964 | 1.03 | – | – | – | – | –
NCI-H1395 | – | – | – | – | – | 0.682 | 0.614 | 0.595 | 0.606 | 0.663 | – | – | – | – | – | 0.773 | 0.694 | 0.707 | 0.927 | 0.766
NCI-H1563 | 0.91 | 0.92 | 0.87 | 0.889 | 0.892 | – | – | – | – | – | 0.854 | 0.937 | 0.844 | 0.909 | 0.757 | – | – | – | – | –
NCI-H1648 | – | – | – | – | – | 0.261 | 0.271 | 0.297 | 0.207 | 0.283 | – | – | – | – | – | – | 0.415 | 0.523 | 0.443 | 0.525
NCI-H1703 | 0.84 | 0.828 | 0.898 | 0.688 | 0.777 | – | – | – | – | – | 0.326 | 0.346 | 0.422 | 0.43 | 0.261 | – | – | – | – | –
NCI-H1792 | 1.04 | 0.976 | 0.901 | 0.855 | 0.786 | 0.777 | 0.747 | 0.665 | 0.604 | 0.627 | 0.921 | 0.906 | 0.95 | 0.909 | 0.983 | – | – | – | – | –
NCI-H1793 | – | – | – | – | – | 0.3 | 0.36 | 0.324 | 0.313 | 0.3 | – | – | – | – | – | 0.784 | 0.82 | 0.773 | 0.913 | 0.881
NCI-H1944 | 1.15 | 1.25 | 1.15 | 1.06 | 1.08 | 0.328 | 0.335 | 0.337 | 0.314 | 0.363 | – | – | – | – | – | 0.496 | 0.613 | 0.474 | 0.538 | 0.566
NCI-H2170 | 1.19 | 1.37 | 1.24 | 1.13 | 1.26 | 0.432 | 0.446 | 0.431 | 0.39 | 0.409 | – | – | – | – | – | 0.796 | 0.809 | 0.804 | 0.844 | 0.85
NCI-H2342 | – | – | – | – | – | 0.514 | 0.562 | 0.442 | 0.502 | 0.593 | – | – | – | – | – | 0.817 | 0.712 | 0.793 | 0.715 | 0.806
SK-MES-1 | 1.13 | 0.995 | 1.08 | 0.944 | 0.966 | 0.358 | 0.336 | 0.319 | 0.329 | 0.333 | – | – | – | – | – | 1.18 | 1.08 | 1.04 | 1.2 | 1.02
SW 900 | – | – | – | – | – | 0.541 | 0.583 | 0.624 | 0.497 | 0.651 | – | – | – | – | – | 0.496 | 0.44 | – | 0.505 | 0.529
